# Data taken from ChEMBL document CHEMBL2331095, “Synthesis and biological activity of 5-chloro-N⁴-substituted phenyl-9H-pyrimido[4,5-b]indole-2,4-diamines as vascular endothelial growth factor receptor-2 inhibitors and antiangiogenic agents” (Bioorg Med Chem, 2013).
# Key:
# A-431 = experiment: Cytotoxicity against human A431 cells incubated for 12 hrs followed by compound wash out measured 36 hrs by CYQUANT assay; assay type: functional, cell-based
# [1] = biological target: T1, Epidermal growth factor receptor (Homo sapiens, UniProt P00533); assay type: cell-based, A-431;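 further: human A431 cells pretreated 60 min before EGF stimulation, EGF-induced tyrosine phosphorylation read by ELISA after 10 min of activation, lower signal meaning inhibition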
# T1 sequence (P00533 whole entry): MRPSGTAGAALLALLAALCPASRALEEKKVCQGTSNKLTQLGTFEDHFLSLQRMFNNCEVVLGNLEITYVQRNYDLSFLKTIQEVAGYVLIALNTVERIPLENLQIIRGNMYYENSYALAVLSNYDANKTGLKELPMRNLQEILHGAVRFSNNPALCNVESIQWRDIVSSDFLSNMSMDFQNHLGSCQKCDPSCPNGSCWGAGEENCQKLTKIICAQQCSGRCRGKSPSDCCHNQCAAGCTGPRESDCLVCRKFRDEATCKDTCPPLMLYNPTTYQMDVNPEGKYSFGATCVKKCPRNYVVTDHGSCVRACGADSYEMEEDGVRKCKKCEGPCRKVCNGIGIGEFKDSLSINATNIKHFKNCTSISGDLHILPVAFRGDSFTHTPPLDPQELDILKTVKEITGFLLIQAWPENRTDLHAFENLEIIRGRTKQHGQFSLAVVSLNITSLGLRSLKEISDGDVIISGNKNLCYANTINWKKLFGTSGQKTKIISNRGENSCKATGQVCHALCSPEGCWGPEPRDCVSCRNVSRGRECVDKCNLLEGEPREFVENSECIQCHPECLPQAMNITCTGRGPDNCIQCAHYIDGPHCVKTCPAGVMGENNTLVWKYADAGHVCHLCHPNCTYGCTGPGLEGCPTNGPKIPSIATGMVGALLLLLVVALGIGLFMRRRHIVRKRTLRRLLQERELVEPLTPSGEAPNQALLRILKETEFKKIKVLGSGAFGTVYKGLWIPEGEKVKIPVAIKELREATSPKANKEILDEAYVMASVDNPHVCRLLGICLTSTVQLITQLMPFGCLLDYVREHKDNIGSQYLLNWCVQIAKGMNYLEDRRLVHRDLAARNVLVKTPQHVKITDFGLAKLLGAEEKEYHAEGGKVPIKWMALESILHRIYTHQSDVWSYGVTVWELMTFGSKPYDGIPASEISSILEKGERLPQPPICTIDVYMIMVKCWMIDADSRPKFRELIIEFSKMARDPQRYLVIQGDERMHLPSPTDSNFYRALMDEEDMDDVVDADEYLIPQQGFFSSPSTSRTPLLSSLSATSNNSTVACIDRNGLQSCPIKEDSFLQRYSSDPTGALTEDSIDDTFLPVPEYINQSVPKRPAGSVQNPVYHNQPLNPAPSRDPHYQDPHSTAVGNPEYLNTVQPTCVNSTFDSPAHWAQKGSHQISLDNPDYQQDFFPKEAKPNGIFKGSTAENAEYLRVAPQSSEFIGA
# [2] = biological target: Vascular endothelial growth factor receptor 2 (Homo sapiens, UniProt P35968); assay type: cell-based, U-251;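 further: human U251 cells, compound preincubated 60 min before VEGF stimulation, VEGF-induced VEGFR2 tyrosine phosphorylation measured by ELISA after 10 min, value is concentration inhibiting this phosphorylation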
# Sequence of Vascular endothelial growth factor receptor 2 (P35968 whole entry): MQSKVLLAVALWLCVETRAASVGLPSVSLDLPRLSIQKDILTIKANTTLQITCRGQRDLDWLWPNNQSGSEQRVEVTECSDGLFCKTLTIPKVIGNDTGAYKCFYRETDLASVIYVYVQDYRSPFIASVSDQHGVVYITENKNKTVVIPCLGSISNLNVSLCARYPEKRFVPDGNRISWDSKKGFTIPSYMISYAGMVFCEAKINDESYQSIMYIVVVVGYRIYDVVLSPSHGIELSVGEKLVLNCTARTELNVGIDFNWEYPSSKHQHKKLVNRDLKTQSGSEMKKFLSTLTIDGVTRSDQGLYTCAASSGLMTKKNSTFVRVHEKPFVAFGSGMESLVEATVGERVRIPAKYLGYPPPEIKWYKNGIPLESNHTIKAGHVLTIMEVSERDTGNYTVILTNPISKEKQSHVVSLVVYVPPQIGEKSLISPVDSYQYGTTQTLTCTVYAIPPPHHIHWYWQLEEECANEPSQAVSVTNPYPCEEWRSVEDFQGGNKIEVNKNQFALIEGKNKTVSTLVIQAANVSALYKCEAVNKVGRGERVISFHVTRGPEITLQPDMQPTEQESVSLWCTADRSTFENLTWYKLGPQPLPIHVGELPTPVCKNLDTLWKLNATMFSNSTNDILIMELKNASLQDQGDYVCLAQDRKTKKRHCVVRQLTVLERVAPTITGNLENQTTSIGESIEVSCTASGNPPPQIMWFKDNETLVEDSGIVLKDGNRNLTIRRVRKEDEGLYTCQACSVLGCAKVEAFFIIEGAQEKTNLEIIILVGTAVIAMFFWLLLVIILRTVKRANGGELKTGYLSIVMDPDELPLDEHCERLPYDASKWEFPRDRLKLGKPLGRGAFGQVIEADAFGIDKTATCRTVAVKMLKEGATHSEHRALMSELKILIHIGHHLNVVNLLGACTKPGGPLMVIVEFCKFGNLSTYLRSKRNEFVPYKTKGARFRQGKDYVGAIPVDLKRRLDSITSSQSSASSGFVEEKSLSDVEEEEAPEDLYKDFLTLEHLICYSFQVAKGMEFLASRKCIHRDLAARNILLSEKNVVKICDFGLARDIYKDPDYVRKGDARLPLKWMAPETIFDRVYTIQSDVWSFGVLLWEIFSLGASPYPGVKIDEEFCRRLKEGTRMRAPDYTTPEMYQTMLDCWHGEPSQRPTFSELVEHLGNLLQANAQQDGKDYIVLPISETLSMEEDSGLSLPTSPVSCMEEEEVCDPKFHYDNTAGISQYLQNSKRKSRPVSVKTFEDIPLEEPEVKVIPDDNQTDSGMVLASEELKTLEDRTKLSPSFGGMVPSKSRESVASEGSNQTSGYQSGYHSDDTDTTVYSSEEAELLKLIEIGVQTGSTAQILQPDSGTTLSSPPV
# [3] = biological target: Platelet-derived growth factor receptor beta (Homo sapiens, UniProt P09619); experiment: Inhibition of PDGFRbeta in human SF539 cells assessed as inhibition of […] tyrosine phosphorylation incubated for 60 mins prior to PDGF-BB-activation measured 10 mins by ELISA
# Sequence of Platelet-derived growth factor receptor beta (P09619 whole entry): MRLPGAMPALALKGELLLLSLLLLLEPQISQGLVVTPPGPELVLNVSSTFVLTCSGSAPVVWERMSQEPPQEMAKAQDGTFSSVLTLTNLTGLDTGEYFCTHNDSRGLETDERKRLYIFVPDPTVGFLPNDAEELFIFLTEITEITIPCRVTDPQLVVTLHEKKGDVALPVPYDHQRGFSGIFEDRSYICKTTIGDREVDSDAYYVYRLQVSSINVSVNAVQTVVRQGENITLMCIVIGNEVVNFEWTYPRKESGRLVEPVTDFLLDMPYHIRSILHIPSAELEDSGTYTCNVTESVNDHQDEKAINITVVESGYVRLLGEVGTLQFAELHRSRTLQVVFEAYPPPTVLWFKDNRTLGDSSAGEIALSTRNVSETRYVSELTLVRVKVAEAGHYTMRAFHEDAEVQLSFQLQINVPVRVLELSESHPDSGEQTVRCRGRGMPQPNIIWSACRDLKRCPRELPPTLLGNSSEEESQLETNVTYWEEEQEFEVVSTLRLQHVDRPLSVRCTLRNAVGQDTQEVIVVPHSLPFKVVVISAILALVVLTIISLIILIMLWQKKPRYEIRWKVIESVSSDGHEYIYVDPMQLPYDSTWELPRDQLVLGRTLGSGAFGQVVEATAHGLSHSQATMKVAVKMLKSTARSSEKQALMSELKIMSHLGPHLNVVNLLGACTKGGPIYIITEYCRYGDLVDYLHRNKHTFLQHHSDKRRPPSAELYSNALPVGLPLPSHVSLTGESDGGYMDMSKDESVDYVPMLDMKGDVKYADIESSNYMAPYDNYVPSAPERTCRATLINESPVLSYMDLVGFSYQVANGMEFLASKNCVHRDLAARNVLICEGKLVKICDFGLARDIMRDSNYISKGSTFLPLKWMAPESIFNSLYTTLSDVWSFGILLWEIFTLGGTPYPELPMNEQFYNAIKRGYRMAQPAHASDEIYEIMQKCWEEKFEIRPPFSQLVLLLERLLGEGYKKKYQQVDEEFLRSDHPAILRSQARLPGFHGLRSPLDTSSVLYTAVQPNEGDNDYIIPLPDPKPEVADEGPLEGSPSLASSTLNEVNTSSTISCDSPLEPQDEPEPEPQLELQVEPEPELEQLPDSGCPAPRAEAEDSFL
# [4] = biological target: T1, Epidermal growth factor receptor; experiment: Ratio of sunitinib IC50 to compound IC50 for EGFR in human A431 cells; assay type: cell-based; details: A-431
Compound,IC50 [1],IC50 [2],IC50 [3],Ratio IC50 [4],IC50 (A-431)
CC(C)c1ccc(Nc2nc(N)nc3[nH]c4cccc(Cl)c4c23)cc1,,30.3 µM,> 200 µM,,
CC(C)(C)C(=O)Nc1nc(Nc2ccc(Cl)cc2)c2c(n1)[nH]c1cccc(Cl)c12,58.7 µM,21.3 µM,> 200 µM,,
Nc1nc(Nc2ccc(Cl)cc2F)c2c(n1)[nH]c1cccc(Cl)c12,,,> 200 µM,,
CC(C)c1ccc(Nc2nc(NC(=O)C(C)(C)C)nc3[nH]c4cccc(Cl)c4c23)cc1,39.2 µM,47.8 µM,> 200 µM,,> 250 µM
CC(C)(C)C(=O)Nc1nc(Nc2cccc(F)c2)c2c(n1)[nH]c1cccc(Cl)c12,30.8 µM,31.2 µM,> 200 µM,5.5,> 250 µM

# Continued, in another order:
IC50 [1],IC50 [2],IC50 [3],Ratio IC50 [4],Compound,IC50 (A-431)
130 µM,41 µM,196 µM,,COc1cccc(Nc2nc(NC(=O)C(C)(C)C)nc3[nH]c4cccc(Cl)c4c23)c1,> 250 µM
> 200 µM,124 µM,> 200 µM,,Nc1nc(Nc2ccccc2)c2c(n1)[nH]c1cccc(Cl)c12,193 µM
82.9 µM,70.1 µM,50.5 µM,2.1,COc1cccc(Nc2nc(N)nc3[nH]c4cccc(Cl)c4c23)c1,
> 200 µM,86.1 µM,172 µM,,Nc1nc(Nc2cccc(F)c2)c2c(n1)[nH]c1cccc(Cl)c12,
115 µM,192 µM,70.6 µM,,CC(C)(C)C(=O)Nc1nc(Nc2ccccc2)c2c(n1)[nH]c1cccc(Cl)c12,
63.6 µM,13.2 µM,196 µM,,Nc1nc(Nc2ccc(Cl)cc2)c2c(n1)[nH]c1cccc(Cl)c12,
> 200 µM,89.1 µM,171 µM,,CC(C)(C)C(=O)Nc1nc(Nc2ccc(Cl)cc2F)c2c(n1)[nH]c1cccc(Cl)c12,> 250 µM
